Source: US12312359B2 (Vitae Pharmaceuticals, LLC, priority 2016, dated 2025)

Columns and labels:
[1] = biological target: T1, biotinylated wild-type menin and MLL-AF9 fusion protein (menin/MLL binding) (Homo sapiens, UniProt O00255); experiment: Assay 1: menin/MLL binding AlphaLISA assay, wild-type menin; conditions: Table 30; column head does not say wild-type or mutated menin
T1 construct: made in house; host or cells: menin: E. coli; MLL-AF9-FLAG: HEK293 cells, used as cleared lysate
T1 sequence (O00255 1-610): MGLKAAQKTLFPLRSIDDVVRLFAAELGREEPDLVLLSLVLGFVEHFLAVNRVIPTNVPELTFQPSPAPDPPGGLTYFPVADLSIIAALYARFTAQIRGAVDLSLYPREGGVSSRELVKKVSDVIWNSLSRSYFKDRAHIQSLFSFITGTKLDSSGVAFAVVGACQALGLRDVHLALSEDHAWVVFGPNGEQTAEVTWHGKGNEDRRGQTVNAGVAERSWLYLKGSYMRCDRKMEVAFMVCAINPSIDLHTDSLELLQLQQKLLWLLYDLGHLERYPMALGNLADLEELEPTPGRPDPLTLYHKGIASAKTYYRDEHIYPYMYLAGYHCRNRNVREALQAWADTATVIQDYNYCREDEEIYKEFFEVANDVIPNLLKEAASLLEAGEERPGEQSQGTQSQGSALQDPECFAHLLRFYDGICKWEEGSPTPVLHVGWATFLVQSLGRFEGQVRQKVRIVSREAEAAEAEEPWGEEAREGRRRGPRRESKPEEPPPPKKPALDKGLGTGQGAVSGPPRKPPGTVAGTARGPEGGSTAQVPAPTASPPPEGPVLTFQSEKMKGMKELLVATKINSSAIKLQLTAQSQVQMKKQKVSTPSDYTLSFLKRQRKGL
Outline: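 Compound was preincubated 30 min at room temperature with biotinylated menin (5 nM) and MLL-AF9-FLAG lysate from HEK293 cells, pH 7.4 buffer with 5% DMSO and DTT. Bead-based Alpha signal after 60 min with streptavidin donor and anti-FLAG acceptor beads; four-parameter logistic fit gave IC50.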

[2] = system: human acute monocytic leukemia cell line MV-4-11; experiment: Assay 2: cell proliferation assay (ATP quantitation, CellTiter-Glo), MV-4-11; format: cell-based; conditions: MV-4-11 cells
Outline: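 Read-out is CellTiter-Glo luminescence quantifying ATP. Compound exposure lasted 72 h at 37° C., 5% CO2, with 1.67×10^4 MV-4-11 cells per well in 10% FBS medium, alongside HL-60 toxicity-control cells.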

SMILES	IC50 [1]	EC50 ([2]; Homo sapiens, MV4-11, 72 h)	EC50 ([2]; 72 h)
CC(C)N(C(=O)c1cc(F)ccc1Oc1cncnc1N1CC2(CN(CC3CCOCC3)C2)C1)C(C)C [Example 112, 5-fluoro-N,N-diisopropyl-2-((4-(6-((tetrahydro-2H-pyran-4-yl)methyl)-2,6-diazaspiro[3.3]heptan-2-yl)pyrimidin-5-yl)oxy)benzamide]	< 100 nM	< 100 nM	–
COC(=O)Nc1cccc(CN2CCC3(CCN(c4ncncc4Oc4ccc(F)cc4-c4ccc(C#N)cc4C4CC4)C3)C2)c1 (stereo not drawn) [Example 170, methyl (3-((7-(5-((4′-cyano-2′-cyclopropyl-5-fluoro-[1,1′-biphenyl]-2-yl)oxy)pyrimidin-4-yl)-2,7-diazaspiro[4.4]nonan-2-yl)methyl)phenyl) carbamate]	< 100 nM	100 to 1000 nM	–
CC(C)C(=O)N(C)c1cc(F)ccc1Oc1cncnc1N1CC2(CN(CC[C@H]3CC[C@H](NC(=O)OC(C)(C)C)CC3)C2)C1 [Example 138, tert-butyl ((1r,4r)-4-(2-(6-(5-(4-fluoro-2-(N-methyl-isobutyramido)phenoxy)pyrimidin-4-yl)-2,6-diazaspiro [3.3]heptan-2-yl)ethyl)cyclohexyl)carbamate]	< 100 nM	< 100 nM	–
CC(C)c1ncncc1-c1cc(F)ccc1Oc1cncnc1N1CC2(CN(CC3CCC4(CC3)OCCO4)C2)C1 [Example 64, 2-(1,4-dioxaspiro[4.5]decan-8-ylmethyl)-6-(5-(4-fluoro-2-(4-isopropylpyrimidin-5-yl)phenoxy)pyrimidin-4-yl)-2,6-diazaspiro[3.3]heptane]	< 100 nM	100 to 1000 nM	–
COC(C)c1ccccc1-c1cc(F)ccc1Oc1cncnc1N1CC2(CN(CC3CCOCC3)C2)C1 (stereo not drawn) [Example 67, 2-(5-((5-fluoro-2′-(1-methoxyethyl)-[1,1′-biphenyl]-2-yl)oxy)pyrimidin-4-yl)-6-((tetrahydro-2H-pyran-4-yl)methyl)-2,6-diazaspiro[3.3]heptane]	< 100 nM	100 to 1000 nM	–
CC(C)(C)OC(=O)N[C@H]1CC[C@H](CCN2CC3(C2)CN(c2ncncc2Oc2ccc(F)cc2-c2ccc(C#N)cc2C2CC2)C3)CC1 [Example 189, tert-butyl ((1r,4r)-4-(2-(6-(5-((4′-cyano-2′-cyclopropyl-5-fluoro-[1,1′-biphenyl]-2-yl)oxy)pyrimidin-4-yl)-2,6-diazaspiro[3.3]heptan-2-yl)ethyl)cyclohexyl) carbamate]	< 100 nM	100 to 1000 nM	–
CC(C)Oc1ncccc1-c1cc(F)ccc1Oc1cncnc1N1CC2(CN(CC3CCOCC3)C2)C1 [Example 162, 2-(5-(4-fluoro-2-(2-isopropoxypyridin-3-yl)phenoxy)pyrimidin-4-yl)-6-((tetrahydro-2H-pyran-4-yl)methyl)-2,6-diazaspiro[3.3]heptane]	< 100 nM	100 to 1000 nM	–
CC(C)N(C)C(=O)c1cc(F)ccc1Oc1cncnc1N1CC2(CN(CC3CCCCC3)C2)C1 [Example 167, 2-((4-(6-(cyclohexylmethyl)-2,6-diazaspiro[3.3]heptan-2-yl)pyrimidin-5-yl)oxy)-5-fluoro-N-isopropyl-N-methylbenzamide]	< 100 nM	100 to 1000 nM	–
Fc1ccc(Oc2cncnc2N2CC3(CN(CC4CCOCC4)C3)C2)c(OC2CCCC2)c1 [Example 168, 2-(5-(2-(cyclopentyloxy)-4-fluorophenoxy)pyrimidin-4-yl)-6-((tetrahydro-2H-pyran-4-yl)methyl)-2,6-diazaspiro[3.3]heptane]	< 100 nM	≥ 1000 nM	–
CC(C)c1ncncc1-c1cc(F)ccc1Oc1cncnc1N1CCC2(CN(C(=O)Cc3ccc(C#N)cc3)C2)C1 [Example 130, 4-(2-(6-(5-(4-fluoro-2-(4-isopropylpyrimidin-5-yl)phenoxy)pyrimidin-4-yl)-2,6-diazaspiro[3.4]octan-2-yl)-2-oxoethyl)benzonitrile]	< 100 nM	100 to 1000 nM	–
CC(=O)N[C@H]1CC[C@H](CCN2CC3(C2)CN(c2ncncc2Oc2ccc(F)cc2-c2ccc(C#N)cc2C2CC2)C3)CC1 [Example 143, N-((1r,4r)-4-(2-(6-(5-((4′-cyano-2′-cyclopropyl-5-fluoro-[1,1′-biphenyl]-2-yl)oxy)pyrimidin-4-yl)-2,6-diazaspiro[3.3]heptan-2-yl)ethyl)cyclohexyl) acetamide]	< 100 nM	≥ 1000 nM	–

The remaining lines, values ahead:

IC50 [1]	EC50 ([2]; Homo sapiens, MV4-11, 72 h)	EC50 ([2]; 72 h)	SMILES
< 100 nM	–	< 100 nM	CCN(C(=O)c1cc(F)ccc1Oc1cncnc1N1CCC2(CCN(Cc3ccc4[nH]c(=O)[nH]c4c3)C2)C1)C(C)C (single isomer, unassigned) [Example 2A, N-ethyl-5-fluoro-N-isopropyl-2-((4-(7-((2-oxo-2,3-dihydro-1H-benzo[d]imidazol-5-yl)methyl)-2,7-diazaspiro[4.4]nonan-2-yl)pyrimidin-5-yl)oxy)benzamide]
< 100 nM	100 to 1000 nM	–	CC(C)N(C)C(=O)c1cc(F)ccc1Oc1cncnc1N1CCC2(CCN(Cc3c[nH]c4cc(C#N)ccc34)C2)C1 (stereo not drawn) [Example 194, 2-((4-(7-((6-cyano-1H-indol-3-yl)methyl)-2,7-diazaspiro[4.4]nonan-2-yl)pyrimidin-5-yl)oxy)-5-fluoro-N-isopropyl-N-methylbenzamide]
< 100 nM	< 100 nM	–	CCN(C(=O)c1cc(F)ccc1Oc1cncnc1N1CCC2(CCN(Cc3ccc4[nH]c(=O)[nH]c4c3)C2)C1)C(C)C (racemic) [Example 2, N-ethyl-5-fluoro-N-isopropyl-2-((4-(7-((2-oxo-2,3-dihydro-1H-benzo[d]imidazol-5-yl)methyl)-2,7-diazaspiro[4.4]nonan-2-yl)pyrimidin-5-yl)oxy)benzamide]
< 100 nM	< 100 nM	–	O=c1[nH]c2ccc(CN3CCC4(CCN(c5ncncc5Oc5ccc(F)cc5CN5CCOCC5)C4)C3)cc2[nH]1 (stereo not drawn) [Example 70, 5-((7-(5-(4-fluoro-2-(morpholinomethyl)phenoxy)pyrimidin-4-yl)-2,7-diazaspiro[4.4]nonan-2-yl)methyl)-1H-benzo[d]imidazol-2(3H)-one]
< 100 nM	100 to 1000 nM	–	CC(C)N(C)C(=O)c1cc(F)ccc1Oc1cncnc1N1CC2(CCN(C[C@H]3CC[C@H](NS(C)(=O)=O)CC3)CC2)C1 [Example 93, 5-fluoro-N-isopropyl-N-methyl-2-((4-(7-(((1r,4r)-4-(methylsulfonamido)cyclohexyl)methyl)-2,7-diazaspiro [3.5]nonan-2-yl)pyrimidin-5-yl)oxy)benzamide]
< 100 nM	100 to 1000 nM	–	CC(C)N(C(=O)c1cc(F)ccc1Oc1cncnc1N1CC2(CCN(CC3CCOCC3)CC2)C1)C(C)C [Example 101, 5-fluoro-N,N-diisopropyl-2-((4-(7-((tetrahydro-2H-pyran-4-yl)methyl)-2,7-diazaspiro[3.5]nonan-2-yl)pyrimidin-5-yl)oxy)benzamide]
< 100 nM	100 to 1000 nM	–	CC(C)C(=O)N(CCO)c1cc(F)ccc1Oc1cncnc1N1CCC2(CCN(Cc3ccc4[nH]c(=O)[nH]c4c3)C2)C1 (stereo not drawn) [Example 185, N-(5-fluoro-2-((4-(7-((2-oxo-2,3-dihydro-1H-benzo[d]imidazol-5-yl)methyl)-2,7-diazaspiro[4.4]nonan-2-yl)pyrimidin-5-yl)oxy)phenyl)-N-(2-hydroxyethyl)iso-butyramide]
